Experimental data: patent US20230233576A1, “ECLITASERTIB FOR USE IN TREATING CONDITIONS INVOLVING SYSTEMIC HYPERINFLAMMATORY RESPONSE” (priority 2020, published 2023)

Key:
[1] = non-human primate toxicology studies; assay type: in vivo; conditions: up to 29 days and up to 500 mg/kg/day
[2] = system: adult participants hospitalized for severe COVID-19; test: Phase 1b severe COVID-19 study: oxygenation (SpO2, SpO2/FiO2 ratio, days without oxygen support, VFD, RFFD); assay type: in vivo, human; conditions: for Change from baseline in SpO2/FiO2 ratio, point estimate / Change from baseline in SpO2/FiO2 ratio, adjusted treatment difference RIPK1 Inhibitor vs placebo: MMRM, LOCF; for median change from baseline in SpO2/FiO2 ratio: observed data; for median change in SpO2/FiO2 ratio from baseline: LOCF imputation
Description: This study was a multinational, multi-center, double-blind, 2:1 randomized (RIPK1 Inhibitor to placebo), placebo-controlled study in adult participants hospitalized for severe COVID-19.
Participants were assigned to treatment according to randomization list. Six RIPK1 Inhibitor 50 mg capsules (300 mg) or matching placebo capsules were administered orally in fasting or fed conditions twice a day (BID). For participants intubated with feeding tube in place, the IMPs were given as suspension by feeding tube.
The main secondary clinical assessments endpoints included: • Time to 50% decrease from baseline in CRP level • Time to improvement of oxygenation as measured by oxygen saturation≥92% breathing room air over 48 hours or until discharge • Change from baseline in SPO2/FiO2 ratio at Day 7
Other secondary clinical assessment endpoints included: • Number of Days without need for oxygen support and alive (oxygen saturation≥92% breathing room air) up to Day 28 • Numbers of Ventilator-free days and alive up to Day 28 • Change from baseline in markers of inflammation (White blood cell count, differential blood lymphocytes, neutrophil to lymphocyte ratio, IL-6) and D-Dimer at Day 7 and EOT • Incidence of Deaths up to Day 28 • Percentage of participants receiving thrombolytic treatment up to Day 28 • Percentage of participants receiving vasopressor treatment up to Day 28 • Numbers of Respiratory Failure-Free Days (RFFD) and alive up to Day 28
The time to improvement of oxygenation as measured by oxygen saturation>92% breathing room air over 48 hours or until discharge was estimated using the Kaplan-Meier approach and treatment arms were compared in an exploratory fashion using the log-rank test.
Presence of SO2≥92% without use of any supplemental oxygen device on two consecutive days (earliest occurrence) or at day of discharge was considered as event. If such criterion was not met, time to event was censored at the time point of the last observation of SpO2 collected. For participants who died during the study without experiencing the event, similar LOCF approached was used and a sensitivity analysis was performed as described in Section 1.7.1.1.2.1.
The number and percentage of participants who experience the event without applying censoring rules was reported at Days 3, 5, 7, 15 and 28.
The analysis of the change from baseline in SpO2/FiO2 ratio was based on a MMRM model fitted on observed values for Days 2, 3, 4, 5, 6, 7 and 15. The model included fixed effects for participant-specific SpO2/FiO2 ratio at baseline, respective visit, treatment group, and visit-by-treatment group interaction, and random effects for sites. Repeated measurements for each visit were taken within participant assuming an unstructured covariance pattern within treatment group.
The LS means for the difference in change from baseline at Day 7 between RIPK1 Inhibitor and placebo were provided, jointly with the corresponding 90% confidence interval.
The point estimate of the change from baseline in SpO2/FiO2 ratio and the difference between treatment groups and two-sided 90% confidence interval value were reported for Day 2 to 7 and EOT as described above. Time profile plots of point estimates of the change from baseline (+/−90% Cis) were presented by treatment group.
Missing values for the change from baseline in SpO2/FiO2 ratio were replaced following the LOCF approach, regardless if occurring before or after discontinuation/discharge/death. In case no LOCF could be identified (e.g., no post-baseline value prior to Day 2 to replace a missing Day 2 result), the missing value was not imputed. A sensitivity analysis was performed by repeating the above analysis without any imputation of missing values.

[3] = 600 mg, Baseline, Efficacy population
[4] = 600 mg, Day 2, Efficacy population
[5] = 600 mg, Day 3, Efficacy population
[6] = 600 mg, Day 4, Efficacy population
[7] = 600 mg, Day 5, Efficacy population
[8] = 600 mg, Day 6, Efficacy population
[9] = 600 mg, Day 7, Efficacy population
[10] = 600 mg, Day 8, Efficacy population
[11] = 600 mg, Day 9, Efficacy population
[12] = 600 mg, Day 10, Efficacy population
[13] = 600 mg, Day 11, Efficacy population
[14] = 600 mg, Day 12, Efficacy population
[15] = 600 mg, Day 13, Efficacy population
[16] = 600 mg, Day 14, Efficacy population
[17] = 600 mg, Day 15, Efficacy population
[18] = 600 mg, up to Day 28, Efficacy population

## CN1C(=O)[C@@H](NC(=O)c2nnc(Cc3ccccc3)[nH]2)COc2cccnc21 [RIPK1 Inhibitor, (S)-5-benzyl-N-(5-methyl-4-oxo-2,3,4,5-tetrahydropyrido[3,2-b][1,4]oxazepin-3-yl)-4H-1,2,4-triazole-3-carboxamide]
[1]
  safety concerns in toxicology studies: did not raise any safety concerns
[2]; 600 mg vs placebo, based on mean values, 28-day study period
  difference of VFDs or RFFDs between the 2 treatment arms in favor of RIPK1 Inhibitor: 3
[2]; 600 mg vs placebo, up to 15-day treatment period
  difference in mean days (without oxygen support, VFDs, RFFDs) in favor of RIPK1 Inhibitor group: 1 days
[2]; [3]
  SpO2/FiO2 ratio, raw data, Mean: 298.0
  SpO2/FiO2 ratio, raw data, Median: 306.3
[2]; [4]
  SpO2/FiO2 ratio, change from baseline, Mean: 16.8
  SpO2/FiO2 ratio, change from baseline, Median: 3.3
  SpO2/FiO2 ratio, raw data, Mean: 314.8
  SpO2/FiO2 ratio, raw data, Median: 290.9
[2]; 600 mg, Day 02, Efficacy population
  Change from baseline in SpO2/FiO2 ratio, point estimate: 72.02
[2]; 600 mg, Day 2
  median change from baseline in SpO2/FiO2 ratio: 3.3
[2]; [5]
  SpO2/FiO2 ratio, change from baseline, Mean: 43.9
  SpO2/FiO2 ratio, change from baseline, Median: 30.9
  SpO2/FiO2 ratio, raw data, Mean: 337.9
  SpO2/FiO2 ratio, raw data, Median: 330.6
[2]; 600 mg, Day 3
  median change in SpO2/FiO2 ratio from baseline: 29.0
[2]; 600 mg, Day 03, Efficacy population
  Change from baseline in SpO2/FiO2 ratio, point estimate: 97.90
[2]; [6]
  SpO2/FiO2 ratio, change from baseline, Mean: 50.8
  SpO2/FiO2 ratio, change from baseline, Median: 47.3
  SpO2/FiO2 ratio, raw data, Mean: 340.4
  SpO2/FiO2 ratio, raw data, Median: 355.5
[2]; 600 mg, Day 4
  median change in SpO2/FiO2 ratio from baseline: 38.1
  median change from baseline in SpO2/FiO2 ratio: 47.3
[2]; 600 mg, Day 04, Efficacy population
  Change from baseline in SpO2/FiO2 ratio, point estimate: 104.61
[2]; [7]
  SpO2/FiO2 ratio, change from baseline, Mean: 62.7
  SpO2/FiO2 ratio, change from baseline, Median: 69.6
  SpO2/FiO2 ratio, raw data, Mean: 350.5
  SpO2/FiO2 ratio, raw data, Median: 356.1
[2]; 600 mg, Day 5
  median change in SpO2/FiO2 ratio from baseline: 70.8
[2]; 600 mg, Day 05, Efficacy population
  Change from baseline in SpO2/FiO2 ratio, point estimate: 121.79
[2]; [8]
  SpO2/FiO2 ratio, change from baseline, Mean: 72.5
  SpO2/FiO2 ratio, change from baseline, Median: 73.9
  SpO2/FiO2 ratio, raw data, Mean: 358.7
  SpO2/FiO2 ratio, raw data, Median: 384.0
  Change from baseline in SpO2/FiO2 ratio, adjusted treatment difference RIPK1 Inhibitor vs placebo: 28.71
[2]; 600 mg, Day 6
  median change in SpO2/FiO2 ratio from baseline: 113.8
  median change from baseline in SpO2/FiO2 ratio: 73.9
[2]; 600 mg, Day 06, Efficacy population
  Change from baseline in SpO2/FiO2 ratio, point estimate: 134.66
[2]; [9]
  SpO2/FiO2 ratio, change from baseline, Mean: 89.2
  SpO2/FiO2 ratio, change from baseline, Median: 124.1
  SpO2/FiO2 ratio, raw data, Mean: 367.1
  SpO2/FiO2 ratio, raw data, Median: 418.2
  Change from baseline in SpO2/FiO2 ratio, adjusted treatment difference RIPK1 Inhibitor vs placebo: 25.24
[2]; 600 mg, Day 7
  median change in SpO2/FiO2 ratio from baseline: 115.3
  median change from baseline in SpO2/FiO2 ratio: 124.1
[2]; 600 mg, Day 07, Efficacy population
  Change from baseline in SpO2/FiO2 ratio, point estimate: 142.21
[2]; [10]
  SpO2/FiO2 ratio, change from baseline, Mean: 99.2
  SpO2/FiO2 ratio, change from baseline, Median: 131.4
  SpO2/FiO2 ratio, raw data, Mean: 371.5
  SpO2/FiO2 ratio, raw data, Median: 433.3
[2]; 600 mg, Day 8
  median change in SpO2/FiO2 ratio from baseline: 125.6
[2]; [11]
  SpO2/FiO2 ratio, change from baseline, Mean: 111.2
  SpO2/FiO2 ratio, change from baseline, Median: 150.0
  SpO2/FiO2 ratio, raw data, Mean: 381.8
  SpO2/FiO2 ratio, raw data, Median: 445.2
[2]; [12]
  SpO2/FiO2 ratio, change from baseline, Mean: 119.8
  SpO2/FiO2 ratio, change from baseline, Median: 133.8
  SpO2/FiO2 ratio, raw data, Mean: 386.7
  SpO2/FiO2 ratio, raw data, Median: 447.6
[2]; [13]
  SpO2/FiO2 ratio, change from baseline, Mean: 111.0
  SpO2/FiO2 ratio, change from baseline, Median: 153.7
  SpO2/FiO2 ratio, raw data, Mean: 373.2
  SpO2/FiO2 ratio, raw data, Median: 445.2
[2]; [14]
  SpO2/FiO2 ratio, change from baseline, Mean: 138.8
  SpO2/FiO2 ratio, change from baseline, Median: 190.3
  SpO2/FiO2 ratio, raw data, Mean: 401.0
  SpO2/FiO2 ratio, raw data, Median: 452.4
[2]; [15]
  SpO2/FiO2 ratio, change from baseline, Mean: 129.1
  SpO2/FiO2 ratio, change from baseline, Median: 195.1
  SpO2/FiO2 ratio, raw data, Mean: 389.5
  SpO2/FiO2 ratio, raw data, Median: 457.1
[2]; [16]
  SpO2/FiO2 ratio, change from baseline, Mean: 139.4
  SpO2/FiO2 ratio, change from baseline, Median: 192.7
  SpO2/FiO2 ratio, raw data, Mean: 414.8
  SpO2/FiO2 ratio, raw data, Median: 454.8
[2]; [17]
  SpO2/FiO2 ratio, change from baseline, Mean: 160.6
  SpO2/FiO2 ratio, change from baseline, Median: 195.1
  SpO2/FiO2 ratio, raw data, Mean: 436.0
  SpO2/FiO2 ratio, raw data, Median: 457.1
  Change from baseline in SpO2/FiO2 ratio, point estimate: 174.65
[2]; 600 mg, Day 15
  median change in SpO2/FiO2 ratio from baseline: 135.1
  median change from baseline in SpO2/FiO2 ratio: 195.1
[2]; 600 mg, Kaplan-Meier, Efficacy population
  median time to improvement of oxygenation (SpO2 >=92% breathing room air): 6 days
[2]; [18]
  Number of Days without need for Oxygen Support and Alive, Mean: 20.5 days
  Number of Days without need for Oxygen Support and Alive, Median: 23.0 days
  Number of Respiratory Failure-Free Days and Alive, Mean: 25.9 days
  Number of Respiratory Failure-Free Days and Alive, Median: 28.0 days
  Number of Ventilator-Free Days and Alive, Mean: 26.0 days
  Number of Ventilator-Free Days and Alive, Median: 28.0 days
